Measured values published in US20060264419A1 (priority 2003, published 2006).

Biological target: 5-HT2A receptors (Rattus norvegicus, UniProt P14842)
Experiment: in-vitro affinity to 5-HT2A receptors, displacement of [3H]ketanserine (Example A1)
Assay type: binding
Details: read-out: HT2A IC50
Source text: The 5-HT2A receptors are exposed both to [^3H]ketanserine (a substance which is known for its affinity to the receptor) and also to the test compound. The decrease in the affinity of [^3H]ketanserine to the receptor is an indication of the affinity of the test substance to the 5-HT2A receptor.

Sequence of 5-HT2A receptors (P14842 whole entry): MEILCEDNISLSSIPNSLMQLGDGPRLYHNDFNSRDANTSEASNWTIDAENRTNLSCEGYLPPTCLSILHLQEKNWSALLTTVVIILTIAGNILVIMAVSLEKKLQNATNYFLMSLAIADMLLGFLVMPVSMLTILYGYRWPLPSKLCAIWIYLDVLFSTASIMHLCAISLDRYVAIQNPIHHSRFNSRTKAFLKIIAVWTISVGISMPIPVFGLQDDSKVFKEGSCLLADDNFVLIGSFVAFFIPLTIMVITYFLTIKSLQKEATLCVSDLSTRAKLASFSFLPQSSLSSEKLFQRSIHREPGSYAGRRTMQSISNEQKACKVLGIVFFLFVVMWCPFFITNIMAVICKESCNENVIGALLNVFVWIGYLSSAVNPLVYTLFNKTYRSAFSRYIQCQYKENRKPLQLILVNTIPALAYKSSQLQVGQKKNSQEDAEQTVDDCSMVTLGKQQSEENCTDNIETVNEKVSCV

Compound | IC50 [nM]
Fc1ccccc1-c1c(CN2CCN(Cc3ccncc3)CC2)cnn1-c1ccc(-c2ccccc2)cc1 [Example 968, 1-[1-Biphenyl-4-yl-5-(2-fluorophenyl)-1H-pyrazol-4-ylmethyl]-4-pyridin-4-ylmethylpiperazine] | 75
CN(C)Cc1ccccc1-c1ccc(-n2ncc(CN3CCN(C)CC3)c2-c2ccccc2F)cc1 [Example 970, {4′-[5-(2-Fluorophenyl)-4-(4-methyl-piperazin-1-ylmethyl)pyrazol-1-yl]biphenyl-2-ylmethyl}-dimethylamine] | 81
CN1CCN(Cc2cnn(-c3ccc(-c4ccc(F)cc4)cc3)c2-c2cnccn2)CC1 [Example 972, 2-[2-(4′-Fluorobiphenyl-4-yl)-4-(4-methyl-piperazin-1-ylmethyl)-2H-pyrazol-3-yl]-pyrazine] | 85
CN1CCN(Cc2cnn(-c3ccc(-c4cc(Cl)cc(Cl)c4)cc3)c2-c2ccccc2F)CC1 [Example 973, 1-[1-(3′,5′-Dichlorobiphenyl-4-yl)-5-(2-fluoro-phenyl)-1H-pyrazol-4-ylmethyl]-4-methyl-piperazine] | 86
CN1CCN(NCc2cnn(-c3ccc(-c4ccc(F)cc4)cc3)c2-c2ccccc2)CC1 [Example 974, [1-(4′-Fluorobiphenyl-4-yl)-5-phenyl-1H-pyrazol-4-ylmethyl]-(4-methyl-piperazin-1-yl)amine] | 87
Cc1nn(-c2ccccc2)c(C)c1CN1CCN(C(=O)CC(C)C(=O)O)CC1 (centres unmarked) [Example 978] | 100
CC1CN(Cc2cnn(-c3ccc(-c4ccccc4)cc3)c2-c2ccccc2F)CC(C)N1 (centres unmarked) [Example 979, 1-[1-Biphenyl-4-yl-5-(2-fluorophenyl)-1H-pyrazol-4-ylmethyl]-3,5-dimethylpiperazine] | 100
O=C(CNCc1cnn(-c2ccc(-c3ccccc3)cc2)c1-c1ccccc1F)Nc1ccc([N+](=O)[O-])cc1 [Example 980, 2-{[1-Biphenyl-4-yl-5-(2-fluorophenyl)-1H-pyrazol-4-ylmethyl]amino}-N-(4-nitrophenyl)-acetamide] | 100
Fc1ccc(-c2ccc(-n3ncc(CN(Cc4cnn(-c5ccc(-c6ccc(F)cc6)cc5)c4-c4ccco4)C4CC4)c3-c3ccco3)cc2)cc1 [Example 982, Cyclopropylbis-[1-(4′-fluorobiphenyl-4-yl)-5-furan-2-yl-1H-pyrazol-4-ylmethyl]amine] | 110
CN1CCN(Cc2cnn(-c3ccc(-c4ccccc4Cl)cc3)c2-c2ccccc2F)CC1 [Example 984, 1-[1-(2′-Chlorobiphenyl-4-yl)-5-(2-fluoro-phenyl)-1H-pyrazol-4-ylmethyl]-4-methyl-piperazine] | 120
O=C(CN1CCN(Cc2cnn(-c3ccc(-c4ccccc4)cc3)c2-c2ccccc2F)CC1)N1CCCC1 [Example 985, 2-{4-[1-Biphenyl-4-yl-5-(2-fluoro-phenyl)-1H-pyrazol-4-ylmethyl]piperazin-1-yl}-1-pyrrolidin-1-ylethanone] | 122
CC1CCN(Cc2cnn(-c3ccc(-c4ccccc4)cc3)c2-c2ccccc2F)CC1 [Example 986, 1-[1-Biphenyl-4-yl-5-(2-fluorophenyl)-1H-pyrazol-4-ylmethyl]-4-methylpiperidine] | 130
N#CC(NCc1cnn(-c2ccc(-c3ccccc3)cc2)c1-c1ccccc1F)C(N)=O (centres unmarked) [Example 987, 2-{[1-Biphenyl-4-yl-5-(2-fluorophenyl)-1H-pyrazol-4-ylmethyl]amino}-2-cyanoacetamide] | 130
CC(=O)Nc1cccc(-c2ccc(-n3ncc(CN4CCN(C)CC4)c3-c3ccccc3F)cc2)c1 [Example 988, N-{4′-[5-(2-Fluorophenyl)-4-(4-methyl-piperazin-1-ylmethyl)pyrazol-1-yl]biphenyl-3-yl}acetamide] | 130
CN1CCN(Cc2cnn(-c3ccc(Br)cc3)c2-c2ccccc2F)CC1 [Example 989, 1-[1-(4-Bromophenyl)-5-(2-fluoro-phenyl)-1H-pyrazol-4-ylmethyl]-4-methylpiperazine] | 130
Fc1ccccc1-c1c(CNC2CN3CCC2CC3)cnn1-c1ccc(-c2ccccc2)cc1 (centres unmarked) [Example 991, (1-Azabicyclo[2.2.2]oct-3-yl)-[1-biphenyl-4-yl-5-(2-fluorophenyl)-1H-pyrazol-4-ylmethyl]-amine] | 140
OCc1cnn(-c2ccc(-c3ccc(F)cc3)cc2)c1-c1cccc(Cl)c1 [Example 992, [5-(3-Chlorophenyl)-1-(4′-fluoro-biphenyl-4-yl)-1H-pyrazol-4-yl]methanol] | 140
CN1CCN(Cc2cnn(-c3ccc(-c4cccc(C#N)c4)cc3)c2-c2ccccc2F)CC1 [Example 993, 4′-[5-(2-Fluorophenyl)-4-(4-methylpiperazin-1-ylmethyl)pyrazol-1-yl]biphenyl-3-carbonitrile] | 140
Cc1ccc(-c2c(CN3CCN(C)CC3)cnn2-c2ccc(-c3ccc(F)cc3)cc2)cc1 [Example 994, 1-[1-(4′-Fluorobiphenyl-4-yl)-5-p-tolyl-1H-pyrazol-4-ylmethyl]-4-methylpiperazine] | 140

Compound | IC50 [nM]
CN1CCC(N(C)Cc2cnn(-c3ccc(-c4ccccc4)cc3)c2-c2ccccc2F)CC1 [Example 995, [1-Biphenyl-4-yl-5-(2-fluorophenyl)-1H-pyrazol-4-ylmethyl]methyl-(1-methylpiperidin-4-yl)amine] | 160
Fc1ccccc1-c1c(CN2CC3CC2CO3)cnn1-c1ccc(-c2ccccc2)cc1 (centres unmarked) [Example 996, 5-[1-Biphenyl-4-yl-5-(2-fluorophenyl)-1H-pyrazol-4-ylmethyl]-2-oxa-5-azabicyclo-[2.2.1]heptane] | 160
Fc1ccccc1-c1c(CN2CC=CCC2)cnn1-c1ccc(-c2ccccc2)cc1 [Example 998, 1-[1-Biphenyl-4-yl-5-(2-fluorophenyl)-1H-pyrazol-4-ylmethyl]-1,2,3,6-tetrahydro-pyridine] | 170
CCOC(=O)N1CCC(N(C)Cc2cnn(-c3ccc(-c4ccccc4)cc3)c2-c2ccccc2F)CC1 [Example 999, Ethyl 4-{[1-biphenyl-4-yl-5-(2-fluorophenyl)-1H-pyrazol-4-ylmethyl]methylamino}piperidine-1-carboxylate] | 170
CN1CCN(Cc2cnn(-c3ccc(-c4cccnc4)cc3)c2-c2ccccc2F)CC1 [Example 1000, 1-[5-(2-Fluorophenyl)-1-(4-pyridin-3-ylphenyl)-1H-pyrazol-4-ylmethyl]-4-methylpiperazine] | 170
Fc1ccccc1-c1c(CNCCCn2ccnc2)cnn1-c1ccc(-c2ccccc2)cc1 [Example 1001, [1-Biphenyl-4-yl-5-(2-fluorophenyl)-1H-pyrazol-4-ylmethyl]-(3-imidazol-1-ylpropyl)amine] | 170
Fc1ccccc1-c1c(CNCCc2c[nH]cn2)cnn1-c1ccc(-c2ccccc2)cc1 [Example 1002, [1-Biphenyl-4-yl-5-(2-fluorophenyl)-1H-pyrazol-4-ylmethyl]-[2-(1H-imidazol-4-yl)-ethyl]amine] | 170
Fc1ccccc1-c1c(CNCc2cccnc2)cnn1-c1ccc(-c2ccccc2)cc1 [Example 1004, [1-Biphenyl-4-yl-5-(2-fluorophenyl)-1H-pyrazol-4-ylmethyl]pyridin-3-ylmethylamine] | 180
Fc1ccc(F)c(-c2ccc(-n3ncc(CNc4cc[nH]n4)c3-c3ccccc3F)cc2)c1 [Example 1005, [1-(2′,5′-Difluorobiphenyl-4-yl)-5-(2-fluoro-phenyl)-1H-pyrazol-4-ylmethyl]-(1H-pyrazol-3-yl)amine] | 180
Nc1ccncc1NCc1cnn(-c2ccc(-c3ccccc3)cc2)c1-c1ccccc1F [Example 1006, N3-[1-Biphenyl-4-yl-5-(2-fluoro-phenyl)-1H-pyrazol-4-ylmethyl]pyridine-3,4-diamine] | 180
CN1CCN(Cc2cnn(-c3ccc(-c4ccc(F)cc4)cc3)c2-c2ccc(Cl)c(Cl)c2)CC1 [Example 1007, 1-[5-(3,4-Dichlorophenyl)-1-(4′-fluoro-biphenyl-4-yl)-1H-pyrazol-4-ylmethyl]-4-methyl-piperazine] | 190
CN(C)C1CCN(Cc2cnn(-c3ccc(-c4ccccc4)cc3)c2-c2ccccc2F)CC1 [Example 1008, {1-[1-Biphenyl-4-yl-5-(2-fluorophenyl)-1H-pyrazol-4-ylmethyl]piperidin-4-yl}dimethyl-amine] | 200
c1ccc(-c2ccc(-n3ncc(CN4CCNCC4)c3-c3ccccn3)cc2)cc1 [Example 1009, 1-(1-Biphenyl-4-yl-5-pyridin-2-yl-1H-pyrazol-4-ylmethyl)piperazine] | 200
CN(C)C(=O)CNCc1cnn(-c2ccc(-c3ccccc3)cc2)c1-c1ccccc1F [Example 1010, 2-{[1-Biphenyl-4-yl-5-(2-fluorophenyl)-1H-pyrazol-4-ylmethyl]amino}-N,N-dimethyl-acetamide] | 200
CCN1CCN(Cc2cnn(-c3ccc(-c4ccc(F)cc4)cc3)c2-c2ccc(OC)cc2)CC1 [Example 1011, 1-Ethyl-4-[1-(4′-fluorobiphenyl-4-yl)-5-(4-methoxyphenyl)-1H-pyrazol-4-ylmethyl]-piperazine] | 200
O=c1ccccn1Cc1cnn(-c2ccc(-c3ccccc3)cc2)c1-c1ccccc1F [Example 1012, 1-[1-Biphenyl-4-yl-5-(2-fluorophenyl)-1H-pyrazol-4-ylmethyl]-1H-pyridin-2-one] | 200
COC(=O)CCNCc1cnn(-c2ccc(-c3ccccc3)cc2)c1-c1ccccc1F [Example 1014, Methyl 3-{[1-biphenyl-4-yl-5-(2-fluoro-phenyl)-1H-pyrazol-4-ylmethyl]amino}propionate] | 210
Cc1nn(-c2ccccc2)c(C)c1CN1CCN(C(=O)C(CCC(=O)O)N2C(=O)c3ccccc3C2=O)CC1 (centres unmarked) [Example 1015] | 220
Cc1cccc(-c2ccc(-n3ncc(CN4CCN(C)CC4)c3-c3ccccc3F)cc2)c1 [Example 1017, 1-[5-(2-Fluorophenyl)-1-(3′-methylbiphenyl-4-yl)-1H-pyrazol-4-ylmethyl]-4-methylpiperazine] | 220
